Results as given in the supplement of paper PMC10307832.

What was measured:
Assay in all cases: relative viability (nuclei count vs DMSO), 5 days (fraction); higher = more cells survive
Ibrutinib + Trametinib = compound: C=CC(=O)N1CCC[C@@H](n2nc(-c3ccc(Oc4ccccc4)cc3)c3c(N)ncnc32)C1 [Ibrutinib] + CC(=O)Nc1cccc(-n2c(=O)n(C3CC3)c(=O)c3c(Nc4ccc(I)cc4F)n(C)c(=O)c(C)c32)c1 [Trametinib] (partner 0.02 µM)
Summary of the method: (§1)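 Lung cancer cell lines, seeded in 1536-well plates, were treated the following day by pin tool with a single drug or with five library-drug doses (not always all listed) in √10 steps on top of a fixed anchor-drug dose. Cells were fixed and nuclei stained in one step after 5 days, and nuclei were counted. Relative viability is the nuclei count for treated wells divided by that for vehicle wells, reported as medians of duplicate plates.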

Ibrutinib + Navitoclax = compound: C=CC(=O)N1CCC[C@@H](n2nc(-c3ccc(Oc4ccccc4)cc3)c3c(N)ncnc32)C1 [Ibrutinib] + CC1(C)CCC(c2ccc(Cl)cc2)=C(CN2CCN(c3ccc(C(=O)NS(=O)(=O)c4ccc(N[C@H](CCN5CCOCC5)CSc5ccccc5)c(S(=O)(=O)C(F)(F)F)c4)cc3)CC2)C1 [Navitoclax] (partner 0.5 µM)
Summary of the method: as §1

PAC-1 + Alpelisib = compound: C=CCc1cccc(/C=N/NC(=O)CN2CCN(Cc3ccccc3)CC2)c1O [PAC-1] + Cc1nc(NC(=O)N2CCC[C@H]2C(N)=O)sc1-c1ccnc(C(C)(C)C(F)(F)F)c1 [Alpelisib] (partner 2 µM)
Summary of the method: as §1

PAC-1 + Phenformin = compound: C=CCc1cccc(/C=N/NC(=O)CN2CCN(Cc3ccccc3)CC2)c1O [PAC-1] + N=C(N)NC(=N)NCCc1ccccc1 [Phenformin] (partner 250 µM)
Summary of the method: as §1

| Cell Line | relative viability (Ibrutinib + Trametinib; first compound 0.005 µM) | relative viability (Ibrutinib + Trametinib; first compound 0.01581 µM) | relative viability (Ibrutinib + Trametinib; first compound 0.05 µM) | relative viability (Ibrutinib + Trametinib; first compound 0.1581 µM) | relative viability (Ibrutinib + Trametinib; first compound 0.5 µM) | relative viability (Ibrutinib + Navitoclax; first compound 0.005 µM) | relative viability (Ibrutinib + Navitoclax; first compound 0.01581 µM) | relative viability (Ibrutinib + Navitoclax; first compound 0.05 µM) | relative viability (Ibrutinib + Navitoclax; first compound 0.1581 µM) | relative viability (Ibrutinib + Navitoclax; first compound 0.5 µM) | relative viability (PAC-1 + Alpelisib; first compound 0.02 µM) | relative viability (PAC-1 + Alpelisib; first compound 0.06325 µM) | relative viability (PAC-1 + Alpelisib; first compound 0.2 µM) | relative viability (PAC-1 + Alpelisib; first compound 2 µM) | relative viability (PAC-1 + Phenformin; first compound 0.02 µM) | relative viability (PAC-1 + Phenformin; first compound 0.06325 µM) | relative viability (PAC-1 + Phenformin; first compound 0.2 µM) | relative viability (PAC-1 + Phenformin; first compound 2 µM) |
| --- | --- | --- | --- | --- | --- | --- | --- | --- | --- | --- | --- | --- | --- | --- | --- | --- | --- | --- |
| NCI-H1975 | 0.274 | 0.303 | 0.287 | 0.302 | 0.213 | 1.04 | 1.14 | 1.08 | 1.09 | 0.637 | 0.597 | 0.678 | 0.621 | 0.642 | 0.404 | 0.389 | 0.401 | 0.447 |
| NCI-H1993 | 0.487 | 0.571 | 0.518 | 0.617 | 0.398 | 0.807 | 0.7 | 0.75 |  | 0.742 | 0.701 | 0.645 | 0.678 | 0.672 | 0.42 | 0.513 | 0.595 | 0.498 |
| NCI-H2009 | 0.208 | 0.252 | 0.253 | 0.306 | 0.234 | 1.13 | 1.12 | 1.22 | 1.21 | 1.16 | 1.1 | 1.13 | 1.13 | 1.15 | 0.473 | 0.481 | 0.451 | 0.484 |
| NCI-H2023 | 0.448 | 0.455 | 0.491 | 0.485 | 0.462 | 1.02 | 0.919 | 0.884 | 1.07 | 0.871 | 0.576 | 0.592 | 0.654 | 0.673 | 0.427 | 0.404 | 0.405 | 0.397 |
| NCI-H2085 | 0.499 | 0.548 | 0.566 | 0.661 | 0.463 | 1.1 | 1.13 | 1 | 1.13 |  | 0.949 | 0.944 | 0.921 | 0.916 | 0.747 | 0.757 | 0.723 | 0.815 |
| NCI-H2087 | 0.166 | 0.196 | 0.199 |  | 0.2 | 1.05 | 0.952 | 1.12 | 1 | 0.939 | 1.07 | 1.02 | 1 | 1.1 | 0.398 | 0.42 | 0.344 | 0.377 |
| NCI-H2126 | 0.5 | 0.474 | 0.522 | 0.559 | 0.466 |  | 0.803 | 0.801 | 0.861 | 0.588 | 0.756 | 0.729 | 0.717 | 0.703 | 0.515 | 0.524 | 0.517 | 0.513 |
| NCI-H2170 | 0.806 | 0.744 | 0.637 | 0.955 | 0.184 | 0.377 | 0.343 | 0.235 | 0.527 | 0.195 | 0.746 | 0.859 | 0.752 | 0.7 | 0.426 | 0.356 | 0.422 | 0.384 |
| NCI-H2228 | 0.379 | 0.488 | 0.412 | 0.55 | 0.298 | 0.859 | 0.838 | 0.932 | 0.911 | 0.836 | 0.611 | 0.672 | 0.593 | 0.753 | 0.303 | 0.303 | 0.306 | 0.318 |
| NCI-H2347 | 0.283 | 0.228 | 0.37 | 0.245 | 0.239 | 0.898 | 0.724 | 0.846 | 0.729 | 0.717 | 1.08 | 1.13 | 0.992 | 1.05 | 0.184 | 0.441 | 0.352 | 0.553 |
| NCI-H2405 | 0.546 | 0.558 |  |  | 0.448 | 0.923 | 0.812 | 0.731 |  | 0.98 | 0.811 | 0.9 | 0.774 | 0.873 | 0.398 | 0.403 | 0.391 | 0.361 |
| NCI-H3122 | 0.23 | 0.244 | 0.251 | 0.223 | 0.221 | 1.06 | 0.971 | 1.06 | 0.956 | 1.06 | 0.66 | 0.808 | 0.837 | 0.747 | 0.378 | 0.377 | 0.365 | 0.333 |
| PC-3 [JPC-3] | 0.617 | 0.592 | 0.617 | 0.754 | 0.456 | 0.82 | 0.805 | 0.598 | 0.824 | 0.488 | 1 | 1.09 | 0.98 | 0.972 | 0.484 | 0.468 | 0.461 | 0.489 |
| PC-14 | 0.735 | 0.647 | 0.643 | 0.818 | 0.254 | 1.04 | 1.05 | 1.12 | 1.05 | 0.922 | 0.989 | 0.856 | 0.938 | 0.962 | 0.59 | 0.683 | 0.727 | 0.633 |
| RERF-LC-KJ | 0.956 | 0.815 | 1.09 | 0.822 | 0.742 | 0.872 |  | 0.699 | 0.745 | 0.677 | 0.768 | 0.8 | 1.33 | 0.783 | 0.414 | 0.392 | 0.407 | 0.427 |
| SK-LU-1 | 0.393 | 0.501 | 0.472 | 0.536 | 0.454 | 0.722 | 0.637 | 1.07 | 0.948 | 0.036 | 0.901 | 1 | 0.919 | 0.854 | 0.568 | 0.547 | 0.432 | 0.587 |
| SW 1573 |  | 0.462 | 0.618 | 0.547 | 0.661 | 0.904 | 0.857 | 1.01 | 0.95 | 0.848 | 0.646 | 0.82 | 0.571 | 0.771 | 0.372 | 0.352 | 0.36 | 0.303 |
| UMC-11 | 0.445 | 0.698 | 0.772 | 0.667 | 0.516 | 0.308 | 0.305 | 0.292 | 0.298 | 0.374 | 0.982 | 0.992 | 1.05 | 1.09 | 0.325 | 0.368 | 0.298 | 0.326 |
